The values that follow are results of earlier work, collected in PMC3086271 (Biochemical Journal, 2011).

For data set [1], the system named is mean arterial blood pressure. The following applies: spontaneous hypertensive rat, intravenous, 10 mg/kg of body weight.
Data set [2] deals with C-ACE of human somatic ACE. The following applies: read-out: Ki for C-ACE.
The target of data set [3] is N-ACE of human somatic ACE. The settings on record: read-out: Ki for N-ACE.

Read-outs that look alike come from different tables or passages of the source.

As to `O=C(N[C@@H](Cc1ccccc1)P(=O)(O)CC(Cc1cc(-c2ccccc2)no1)C(=O)N[C@@H](Cc1ccc(O)cc1)C(=O)O)OCc1ccccc1` (stereo partly drawn) [FII, (2S)-2-({3[hydroxyl(2-phenyl-(1R)-1-{[(benzyloxy)carbonyl]-amino}ethyl)phosphinyl]-2-[(3-phenylisoxazol-5-yl)methyl]-1-oxo-propyl}amino)-3-(4-hydroxy-phenyl) propanoic acid], the “lowering of mean arterial blood pressure as compared with controls” value in data set [1] is reported as 24±2 mmHg.

On to `O=C(N[C@@H](Cc1ccccc1)P(=O)(O)C1CCCC1C(=O)N[C@@H](Cc1c[nH]c2ccccc12)C(=O)O)OCc1ccccc1` (some centres unmarked) [RXPA380], for which the Ki is 0.003 µM in data set [2] (C-ACE-specific phosphinic inhibitor) and 2.5 µM in data set [3].

As to `NCCCC[C@H](N[C@@H](CCc1ccccc1)C(=O)O)C(=O)N1CCC[C@H]1C(=O)O` [lisinopril], the results for the Ki in data set [2] (C-ACE of human somatic ACE) and in data set [3] (N-ACE of human somatic ACE) were 0.0024 µM and 0.044 µM, respectively.

Broadly, the Ki is a dissociation constant, usually derived from enzyme kinetics or from competition with a known ligand.
